# Columns and labels:
# Type in all cases: in vivo
# Setaria = test: Pre-emergence herbicidal action, Setaria; set-up: key: 1=total damage; 9=no action; conditions: 1000 g a.i./ha, 4 weeks, scale of nine ratings (1=total damage, 9=no action)
# Description: (§1) Monocotyledonous and dicotyledonous test plants are sown in standard soil in pots. Immediately after sowing, an aqueous suspension of the test compounds (prepared from a wettable powder (Example F3, b) according to WO 97/34485) or an emulsion of the test compounds (prepared from an emulsifiable concentrate (Example F1, c) according to WO 97/34485) is applied by spraying at an optimum rate of application (500 litres of water/ha). The test plants are then cultivated in a greenhouse under optimum conditions. After a test duration of 4 weeks, the test is evaluated in accordance with a scale of nine ratings (1=total damage, 9=no action). Ratings of from 1 to 4 (especially from 1 to 3) indicate good to very good herbicidal action. Test plants: Setaria, Panicum, Digitaria, Amaranthus, Stellaria, Veronica.
# Panicum [1] = test: Pre-emergence herbicidal action, Panicum; set-up: key: 1=total damage; 9=no action; conditions: 1000 g a.i./ha, 4 weeks, scale of nine ratings (1=total damage, 9=no action)
# Description: as §1
# Digitaria = test: Pre-emergence herbicidal action, Digitaria; set-up: key: 1=total damage; 9=no action; conditions: 1000 g a.i./ha, 4 weeks, scale of nine ratings (1=total damage, 9=no action)
# Description: as §1
# Amaranthus [2] = test: Pre-emergence herbicidal action, Amaranthus; set-up: key: 1=total damage; 9=no action; conditions: 1000 g a.i./ha, 4 weeks, scale of nine ratings (1=total damage, 9=no action)
# Description: as §1
# Stellaria [3] = test: Pre-emergence herbicidal action, Stellaria; set-up: key: 1=total damage; 9=no action; conditions: 1000 g a.i./ha, 4 weeks, scale of nine ratings (1=total damage, 9=no action)
# Description: as §1
# Veronica [4] = test: Pre-emergence herbicidal action, Veronica; set-up: key: 1=total damage; 9=no action; conditions: 1000 g a.i./ha, 4 weeks, scale of nine ratings (1=total damage, 9=no action)
# Description: as §1
# Panicum [5] = test: Post-emergence herbicidal action, Panicum; set-up: key: 1=total damage; 9=no action; conditions: post-emergence (2- to 3-leaf stage), 1000 g a.i/ha, 2 to 3 weeks, scale of nine ratings (1=total damage, 9=no action)
# Protocol: (§2) Monocotyledonous and dicotyledonous test plants are sown in standard soil in pots, and at the 2- to 3-leaf stage are sprayed with an aqueous suspension of the test compounds (prepared from a wettable powder (Example F3, b) according to WO 97/34485) or with an emulsion of the test compounds (prepared from an emulsifiable concentrate (Example F1, c) according to WO 97/34485) at an optimum rate of application of 500 litres of water/ha). The test plants are then grown on in the greenhouse under optimum conditions. After a test duration of 2 to 3 weeks, the test is evaluated in accordance with a scale of nine ratings (1=total damage, 9=no action). Ratings of from 1 to 4 (especially from 1 to 3) indicate good to very good herbicidal action. Test plants: Panicum, Euphorbia, Sida, Amaranthus, Chenopodium, Stellaria, Veronica.
# Euphorbia = test: Post-emergence herbicidal action, Euphorbia; set-up: key: 1=total damage; 9=no action; conditions: post-emergence (2- to 3-leaf stage), 1000 g a.i/ha, 2 to 3 weeks, scale of nine ratings (1=total damage, 9=no action)
# Protocol: as §2
# Sida = test: Post-emergence herbicidal action, Sida; conditions: post-emergence (2- to 3-leaf stage), 1000 g a.i/ha, 2 to 3 weeks, scale of nine ratings (1=total damage, 9=no action)
# Protocol: as §2
# Amaranthus [6] = test: Post-emergence herbicidal action, Amaranthus; set-up: key: 1=total damage; 9=no action; conditions: post-emergence (2- to 3-leaf stage), 1000 g a.i/ha, 2 to 3 weeks, scale of nine ratings (1=total damage, 9=no action)
# Protocol: as §2
# Chenopodium = test: Post-emergence herbicidal action, Chenopodium; set-up: key: 1=total damage; 9=no action; conditions: post-emergence (2- to 3-leaf stage), 1000 g a.i/ha, 2 to 3 weeks, scale of nine ratings (1=total damage, 9=no action)
# Protocol: as §2
# Stellaria [7] = test: Post-emergence herbicidal action, Stellaria; set-up: key: 1=total damage; 9=no action; conditions: post-emergence (2- to 3-leaf stage), 1000 g a.i/ha, 2 to 3 weeks, scale of nine ratings (1=total damage, 9=no action)
# Protocol: as §2
# Veronica [8] = test: Post-emergence herbicidal action, Veronica; set-up: key: 1=total damage; 9=no action; conditions: post-emergence (2- to 3-leaf stage), 1000 g a.i/ha, 2 to 3 weeks, scale of nine ratings (1=total damage, 9=no action)
# Protocol: as §2
Compound,"Setaria, herbicidal action rating (Setaria)","Panicum, herbicidal action rating (Panicum [1])","Digitaria, herbicidal action rating (Digitaria)","Amaranthus, herbicidal action rating (Amaranthus [2])","Stellaria, herbicidal action rating (Stellaria [3])","Veronica, herbicidal action rating (Veronica [4])","Panicum, herbicidal action rating (Panicum [5])","Euphorbia, herbicidal action rating (Euphorbia)","Sida, herbicidal action rating (Sida)","Amaranthus, herbicidal action rating (Amaranthus [6])","Chenopodium, herbicidal action rating (Chenopodium)","Stellaria, herbicidal action rating (Stellaria [7])","Veronica, herbicidal action rating (Veronica [8])"
N#CCc1cccc(C#CCOc2ccc(Br)cn2)c1 [1.008],7,1,1,1,4,1,7,2,3,1,1,4,2
COc1cc(C)cnc1OCC#Cc1cccc(CC#N)c1 [1.022],–,2,–,1,2,1,6,2,3,3,3,4,3
N#CCc1cccc(C#CCOc2ncc(F)cc2F)c1 [1.009],–,–,1,2,3,–,2,1,2,1,1,2,2
N#CCc1cccc(C#CCOc2ncc(Cl)cc2OC(F)F)c1 [1.025],1,1,2,1,1,1,–,2,3,2,7,4,4
COc1cc(Cl)cnc1OCC#Cc1ccccc1 [1.094],–,–,–,3,1,1,2,1,2,1,3,2,3
Cc1ccc(OC(F)F)c(OCC#Cc2cccc(CC#N)c2)n1 [1.024],1,–,–,1,1,1,–,2,2,1,1,1,3
N#CCc1cccc(C#CCOc2ccc(Cl)cn2)c1 [1.007],5,1,1,1,1,7,2,2,4,1,1,6,1
CSc1cccnc1OCC#Cc1cccc(CC#N)c1 [1.047],1,2,1,1,1,4,4,1,3,2,1,1,3
COc1cc(Cl)cnc1OCC#Cc1cccc(CC#N)c1 [1.016],4,2,1,1,1,1,2,1,2,1,1,1,1
COc1cc(F)cnc1OCC#Cc1cccc(CC#N)c1 [1.015],7,2,2,1,1,4,1,1,3,1,1,1,2
N#CCc1cccc(C#CCOc2ncc(Cl)cc2F)c1 [1.011],6,1,1,1,1,1,2,2,2,2,1,2,2
